Reference: patent US8414878B2, “Irilis biopreparation based on bacillus-strain bacteria, bacillus subtilis and bacillus licheniformis contained therein” (priority 2005, dated 2013)

What was measured:
[1] = system: B. licheniformis VKPM B-8610; assay: Sensitivity to antibiotics, delay zones of culture growth; type: cell-based, Bacillus licheniformis; details: strain B. licheniformis VKPM B-8610
[2] = system: B. subtilis VKPMB-8611; assay: as above; type: cell-based, Bacillus subtilis; details: strain B. subtilis VKPMB-8611

| Compound | Diameter of delay zones of cultures growth [1] | Diameter of delay zones of cultures growth [2] |
| --- | --- | --- |
| NCC[C@H](O)C(=O)N[C@@H]1C[C@H](N)[C@@H](O[C@H]2O[C@H](CN)[C@@H](O)[C@H](O)[C@H]2O)[C@H](O)[C@H]1O[C@H]1O[C@H](CO)[C@@H](O)[C@H](N)[C@H]1O [Amicacin] | 17 + 0.2 mm | 22 ± 0.3 mm |
| CC1(C)S[C@@H]2[C@H](NC(=O)[C@H](N)c3ccc(O)cc3)C(=O)N2[C@H]1C(=O)O [Amoscipillin] | 16 + 0.1 mm | 19 ± 0.2 mm |
| CC1(C)S[C@@H]2[C@H](NC(=O)[C@H](N)c3ccccc3)C(=O)N2[C@H]1C(=O)O [Ampicillin] | 0 mm | 11 ± 0.2 mm |
| CC1(C)S[C@@H]2[C@H](NC(=O)[C@H](NC(=O)N3CCNC3=O)c3ccccc3)C(=O)N2[C@H]1C(=O)O [Azlocillin] | 16 + 0.1 mm | 19 ± 0.1 mm |
| CC1(C)S[C@@H]2[C@H](NC(=O)Cc3ccccc3)C(=O)N2[C@H]1C(=O)O [Benzylpenicillin] | 3 ± 0.2 mm | 7 ± 0.1 mm |
| CC1(C)S[C@@H]2[C@H](NC(=O)C(C(=O)O)c3ccccc3)C(=O)N2[C@H]1C(=O)O (stereo partly drawn) [Carbenicillin] | 20 + 0.1 mm | 23 ± 0.5 mm |
| Cn1nnnc1SCC1=C(C(=O)O)N2C(=O)[C@@H](NC(=O)[C@H](O)c3ccccc3)[C@H]2SC1 [Cefamandole] | 15 + 0.1 mm | 35 ± 0.3 mm |
| Cc1nnc(SCC2=C(C(=O)O)N3C(=O)[C@@H](NC(=O)Cn4cnnn4)[C@H]3SC2)s1 [Cefazolin] | 19 + 0.2 mm | 25 ± 0.2 mm |
| CCN1CCN(C(=O)N[C@@H](C(=O)N[C@@H]2C(=O)N3C(C(=O)O)=C(CSc4nnnn4C)CS[C@H]23)c2ccc(O)cc2)C(=O)C1=O [Cefoperazone] | 13 + 0.1 mm | 15 ± 0.2 mm |
| CO/N=C(\C(=O)N[C@@H]1C(=O)N2C(C(=O)O)=C(COC(C)=O)CS[C@H]12)c1csc(N)n1 [Cefotaxime] | 9 + 0.1 mm | 15 ± 0.1 mm |
| CO[C@@]1(NC(=O)Cc2cccs2)C(=O)N2C(C(=O)O)=C(COC(N)=O)CS[C@@H]21 [Cefoxitin] | 13 + 0.1 mm | 18 ± 0.1 mm |
| CC(C)(O/N=C(\C(=O)N[C@@H]1C(=O)N2C(C(=O)[O-])=C(C[n+]3ccccc3)CS[C@H]12)c1csc(N)n1)C(=O)O [Ceftazidime] | 13 + 02 mm | 6 ± 0.3 mm |
| CO/N=C(\C(=O)N[C@@H]1C(=O)N2C(C(=O)O)=CCS[C@H]12)c1csc(N)n1 [Ceftizoxime] | 11 ± 0.1 mm | 3 ± 0.1 mm |
| CO/N=C(\C(=O)N[C@@H]1C(=O)N2C(C(=O)O)=C(CSc3nc(=O)c(=O)[nH]n3C)CS[C@H]12)c1csc(N)n1 [Ceftriaxone] | 12 + 02 mm | 20 + 0.4 mm |
| CO/N=C(\C(=O)N[C@@H]1C(=O)N2C(C(=O)O)=C(COC(N)=O)CS[C@H]12)c1ccco1 [Cefuroxime] | 3 ± 0.1 mm | 2 ± 0.1 mm |
| CC(=O)OCC1=C(C(=O)O)N2C(=O)[C@@H](NC(=O)Cc3cccs3)[C@H]2SC1 [Cephalothin] | 21 + 0.3 mm | 35 ± 0.1 mm |
| O=C(N[C@H](CO)[C@H](O)c1ccc([N+](=O)[O-])cc1)C(Cl)Cl [Chloramphenicol] | 10 ± 0.1 mm | 18 ± 0.3 mm |
| CCC[C@@H]1C[C@@H](C(=O)N[C@@H]([C@H]2O[C@H](SC)[C@H](O)[C@@H](O)[C@H]2O)[C@H](C)Cl)N(C)C1 [Clindamycin] | 12 + 0.1 mm | 9 + 0.2 mm |

| Compound | Diameter of delay zones of cultures growth [1] | Diameter of delay zones of cultures growth [2] |
| --- | --- | --- |
| C[C@@H](O)[C@H]1C(=O)N2C(C(=O)O)=C(SCCN=CN)C[C@H]12 [Imipenems] | 30 + 0.1 mm | 38 ± 0.2 mm |
| NC[C@H]1O[C@H](O[C@H]2[C@H](O)[C@@H](O[C@H]3O[C@H](CO)[C@@H](O)[C@H](N)[C@H]3O)[C@H](N)C[C@@H]2N)[C@H](O)[C@@H](O)[C@@H]1O [Kanamycin] | 21 + 0.1 mm | 22 ± 0.2 mm |
| COc1cccc(OC)c1C(=O)N[C@@H]1C(=O)N2[C@@H]1SC(C)(C)[C@@H]2C(=O)O [Methicillin] | 10 ± 0D | 20 ± 0.1 mm |
| CC1(C)S[C@@H]2[C@H](NC(=O)[C@H](NC(=O)N3CCN(S(C)(=O)=O)C3=O)c3ccccc3)C(=O)N2[C@H]1C(=O)O [Mezlocillin] | 15 + 0.2 mm | 21 ± 0.2 mm |
| CO[C@@]1(NC(=O)C(C(=O)O)c2ccc(O)cc2)C(=O)N2C(C(=O)O)=C(CSc3nnnn3C)CO[C@@H]21 (stereo partly drawn) [Mocsalactam] | 12 + 03 mm | – |
| CCn1cc(C(=O)O)c(=O)c2ccc(C)nc21 [Nalidixic acid] | 15 + 0.1 mm | 21 ± 0.1 mm |
| O=C1CN(/N=C/c2ccc([N+](=O)[O-])o2)C(=O)N1 [Nitrofurantoin] | 20 + 0.1 mm | 15 + 0.2 mm |
| CCn1cc(C(=O)O)c(=O)c2cc(F)c(N3CCNCC3)cc21 [Norfloxacin] | 25 + 0.2 mm | 24 ± 0.2 mm |
| Cc1onc(-c2ccccc2)c1C(=O)N[C@@H]1C(=O)N2[C@@H]1SC(C)(C)[C@@H]2C(=O)O [Oxacillin] | 11 + 0.1 mm | 15 ± 0.3 mm |
| CCN1CCN(C(=O)N[C@@H](C(=O)N[C@@H]2C(=O)N3[C@@H]2SC(C)(C)[C@@H]3C(=O)O)c2ccccc2)C(=O)C1=O [Piperacillin] | 11 + 0.1 mm | 15 + 03 mm |
| CN(C)[C@@H]1C(O)=C(C(N)=O)C(=O)[C@@]2(O)C(O)=C3C(=O)c4c(O)cccc4[C@@](C)(O)[C@H]3C[C@@H]12 [Tetracycline] | 24 + 0.1 mm | 26 + 0.1 mm |
| CC1(C)S[C@@H]2[C@H](NC(=O)[C@H](C(=O)O)c3ccsc3)C(=O)N2[C@H]1C(=O)O [Ticarcillin] | 21 + 0.2 mm | 25 ± 0.4 mm |
| NC[C@H]1O[C@H](O[C@H]2[C@H](O)[C@@H](O[C@H]3O[C@H](CO)[C@@H](O)[C@H](N)[C@H]3O)[C@H](N)C[C@@H]2N)[C@H](N)C[C@@H]1O [Tobramycin] | 20 + 0.2 mm | 25 ± 0.1 mm |
| COc1cc(Cc2cnc(N)nc2N)cc(OC)c1OC [Ttrimethoprim] | 25 + 0.2 mm | 23 ± 0.1 mm |
| CN[C@H](CC(C)C)C(=O)N[C@H]1C(=O)N[C@@H](CC(N)=O)C(=O)N[C@H]2C(=O)N[C@H]3C(=O)N[C@H](C(=O)N[C@H](C(=O)O)c4cc(O)cc(O)c4-c4cc3ccc4O)[C@H](O)c3ccc(c(Cl)c3)Oc3cc2cc(c3O[C@@H]2O[C@H](CO)[C@@H](O)[C@H](O)[C@H]2O[C@H]2C[C@](C)(N)[C@H](O)[C@H](C)O2)Oc2ccc(cc2Cl)[C@H]1O [Vancomycin] | 10 ± 0.1 mm | 12 ± 0.1 mm |
| Gentamicin | 19 + 0.2 mm | 25 ± 0.3 mm |
| Polymyxin E | 10 + 0.2 mm | 11 + 0.1 mm |
